Measured values as given in US6372297B1, “Wood preservative oxathiazines” (Uniroyal Chemical Company, Inc., priority 1993, dated 2002).

Test system: molds and blue-stain fungi
Experiment: In vitro activity against molds and blue-stain fungi, poison plate assay (MIC)
Format: cell-based
Conditions: malt extract agar, complete inhibition
Outline: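 Poison plate format: compound diluted in sterile water and mixed into malt extract agar, then plates inoculated with each fungus. Growth inhibition scored at each concentration to give the MIC.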

## O=S1(=O)CCON=C1c1cccs1 [Compound 34]
A. amstelodami
  MIC (ppm) against A. amstelodami: 5 ppm
A. niger
  MIC (ppm) against A. niger: 5 ppm
A. pullulans
  MIC (ppm) against A. pullulans: 25 ppm
A. versicolor
  MIC (ppm) against A. versicolor: 5 ppm
C. cladosporioides
  MIC (ppm) against C. cladosporioides: 25 ppm
C. pilifera
  MIC (ppm) against C. pilifera: 2.5 ppm
F. solani
  MIC (ppm) against F. solani: 25 ppm
G. candidum
  MIC (ppm) against G. candidum: 25 ppm
P. purpurogenum
  MIC (ppm) against P. purpurogenum: 10 ppm
P. variotii
  MIC (ppm) against P. variotii: 25 ppm
P. violacea
  MIC (ppm) against P. violacea: 25 ppm
S. atra
  MIC (ppm) against S. atra: 5 ppm
S. entoxylina
  MIC (ppm) against S. entoxylina: 5 ppm
T. viride
  MIC (ppm) against T. viride: >25 ppm
U. atrum
  MIC (ppm) against U. atrum: 25 ppm
